The Kd is the concentration at which binding is half-saturated. Lower therefore signals higher affinity.

Consider two compounds from article PMC4104973 (IUCrJ, 2013).

For assay [1], the target named is T1, WcbI (Burkholderia pseudomallei, UniProt Q63R74). The assay can be described thus: biochemical.
The target in assay [2] is T1, WcbI. The settings on record: covalent (disulfide to Cys14); co-crystallized with 200 µM acetyl-CoA; native structure 4BQO (1.56 Å) holds non-covalent CoA carried from E. coli.
For assay [3], the target named is T1, WcbI. The settings on record: absolute Tm at 1 mM ligand (no ligand 37.4 ± 0.4 °C); 10 mM HEPES pH 7.0, 150 mM NaCl.

T1 sequence (Q63R74 1-312 limits assumed): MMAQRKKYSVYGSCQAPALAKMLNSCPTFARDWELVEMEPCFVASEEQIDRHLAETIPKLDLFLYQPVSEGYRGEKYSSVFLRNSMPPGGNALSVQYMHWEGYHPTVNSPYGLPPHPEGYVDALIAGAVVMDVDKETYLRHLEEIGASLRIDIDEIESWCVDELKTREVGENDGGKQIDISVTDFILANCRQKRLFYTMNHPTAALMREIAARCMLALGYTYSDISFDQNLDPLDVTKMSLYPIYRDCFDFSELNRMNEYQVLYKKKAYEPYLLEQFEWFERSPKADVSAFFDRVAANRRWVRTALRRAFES

At WcbI [1], `CC(C)(COP(=O)(O)OP(=O)(O)OC[C@H]1O[C@@H](n2cnc3c(N)ncnc32)[C@H](O)[C@@H]1OP(=O)(O)O)[C@@H](O)C(=O)NCCC(=O)NCCS` [coenzyme A] yielded a Kd of 58 ± 2 µM. Moreover, on WcbI [2], the “X-ray crystal structure, 1.38 Å” value is 4bqn for WcbI covalently bound to coenzyme A and 4bqo for the native structure. Besides, at WcbI [3], the “T m ± SD ^† (°C)” value was found to be 46.2 ± 0.2 °C.
Turning to `CC(=O)SCCNC(=O)CCNC(=O)[C@H](O)C(C)(C)COP(=O)(O)OP(=O)(O)OC[C@H]1O[C@@H](n2cnc3c(N)ncnc32)[C@H](O)[C@@H]1OP(=O)(O)O` [acetyl-CoA], the “T m ± SD ^† (°C)” value on WcbI [3] came out at 45.6 ± 0.5 °C.
